Measurements reported in PMC9413568, “Application of COSMO-RS-DARE as a Tool for Testing Consistency of Solubility Data: Case of Coumarin in Neat Alcohols” (Molecules, 2022).

Columns and labels:
[1] = shake-flask solubility of coumarin in neat alcohols, spectrophotometric determination; format: physicochemical; details: mean ± SD, n = 3
Method: This solution was then successfully diluted by transferring its fixed amounts to 10 mL volumetric flasks and adding methanol. The obtained series of solutions with decreasing coumarin concentrations was measured spectrophotometrically, and the absorbance values found at 310 nm wavelength were plotted against the corresponding concentration values. Three separate curves were prepared and then averaged, with the resulting linear equation being y = 42.346x + 0.0085. The curve can be characterized by high linearity, with the determination coefficient of R^2 = 0.9997. […] In this study, the shake-flask-type method of solubility determination was used. […] The prepared samples were incubated for 24 h at four different temperatures (25-40 °C with 5 °C intervals) using an ES-20/60 Orbital Shaker Incubator supplied by Biosan (Riga, Latvia). The temperature adjustment accuracy was 0.1 °C, and its variance during the daily cycle was ±0.5 °C. Moreover, the mixing of the samples at 60 rev/min was provided by the incubator. In the next step, the samples were filtered using a syringe with a PTFE filter with a […] pore size. All of the test tubes, syringes, and filters were preheated to the appropriate temperature to avoid the precipitation of dissolved coumarin. Finally, fixed amounts of the filtrate were transferred to test tubes, which were prefilled with a set amount of methanol, and samples prepared in this way were measured spectrophotometrically. The concentration of coumarin in the samples was determined through spectrophotometric measurements using an […] spectrophotometer from AOE Instruments (Shanghai, China). Spectra in the 190-700 nm wavelength range were recorded with a 1 nm resolution, and samples were diluted with methanol, which was also used as a reference. The absorbance values at 310 nm were used in conjunction with the calibration curve prepared earlier. Three samples were measured for each data point, and their concentrations were averaged and expressed as mole fractions.

[2] = design: method as in PMID 18583357; details: dependence on pH; cited from earlier work

SMILES: O=c1ccc2ccccc2o1 [coumarin, 2H-1-benzopyran-2-one]
- solubility expressed as molar fraction ([1]; 1-butanol, 25 °C): 16.95 ± 1.09 molar fraction ×10^3
- solubility expressed as molar fraction ([1]; 1-butanol, 30 °C): 34.87 ± 1.34 molar fraction ×10^3
- solubility expressed as molar fraction ([1]; 1-butanol, 35 °C): 60.64 ± 0.77 molar fraction ×10^3
- solubility expressed as molar fraction ([1]; 1-butanol, 40 °C): 94.59 ± 2.12 molar fraction ×10^3
- solubility expressed as molar fraction ([1]; 1-octanol, 25 °C): 19.18 ± 0.67 molar fraction ×10^3
- solubility expressed as molar fraction ([1]; 1-octanol, 30 °C): 37.37 ± 1.24 molar fraction ×10^3
- solubility expressed as molar fraction ([1]; 1-octanol, 35 °C): 67.23 ± 2.91 molar fraction ×10^3
- solubility expressed as molar fraction ([1]; 1-octanol, 40 °C): 104.05 ± 0.71 molar fraction ×10^3
- solubility expressed as molar fraction ([1]; 1-pentanol, 25 °C): 19.66 ± 0.28 molar fraction ×10^3
- solubility expressed as molar fraction ([1]; 1-pentanol, 30 °C): 42.95 ± 1.59 molar fraction ×10^3
- solubility expressed as molar fraction ([1]; 1-pentanol, 35 °C): 77.44 ± 0.55 molar fraction ×10^3
- solubility expressed as molar fraction ([1]; 1-pentanol, 40 °C): 126.01 ± 7.64 molar fraction ×10^3
- solubility expressed as molar fraction ([1]; 1-propanol, 25 °C): 41.02 ± 0.72 molar fraction ×10^3
- solubility expressed as molar fraction ([1]; 1-propanol, 30 °C): 74.27 ± 2.42 molar fraction ×10^3
- solubility expressed as molar fraction ([1]; 1-propanol, 35 °C): 121.65 ± 5.97 molar fraction ×10^3
- solubility expressed as molar fraction ([1]; 1-propanol, 40 °C): 181.10 ± 4.99 molar fraction ×10^3
- solubility expressed as molar fraction ([1]; 2-propanol, 25 °C): 30.17 ± 0.60 molar fraction ×10^3
- solubility expressed as molar fraction ([1]; 2-propanol, 30 °C): 60.35 ± 1.81 molar fraction ×10^3
- solubility expressed as molar fraction ([1]; 2-propanol, 35 °C): 101.22 ± 4.59 molar fraction ×10^3
- solubility expressed as molar fraction ([1]; 2-propanol, 40 °C): 154.88 ± 5.76 molar fraction ×10^3
- solubility expressed as molar fraction ([1]; ethanol, 25 °C): 49.43 ± 2.59 molar fraction ×10^3
- solubility expressed as molar fraction ([1]; ethanol, 30 °C): 90.16 ± 5.57 molar fraction ×10^3
- solubility expressed as molar fraction ([1]; ethanol, 35 °C): 142.45 ± 5.12 molar fraction ×10^3
- solubility expressed as molar fraction ([1]; ethanol, 40 °C): 210.96 ± 6.24 molar fraction ×10^3
- solubility expressed as molar fraction ([1]; methanol, 25 °C): 77.01 ± 4.68 molar fraction ×10^3
- solubility expressed as molar fraction ([1]; methanol, 30 °C): 127.52 ± 5.07 molar fraction ×10^3
- solubility expressed as molar fraction ([1]; methanol, 35 °C): 196.63 ± 7.30 molar fraction ×10^3
- solubility expressed as molar fraction ([1]; methanol, 40 °C): 286.50 ± 6.20 molar fraction ×10^3
- aqueous solubility [2]: decreases with the increase of pH
